Columns and labels:
[1] = system: 02.063, LIPC, Foie8b and HN14 cells; assay: Chemosensitivity / PrestoBlue cell viability, four primary pancreatic cancer-derived cells; assay type: cell-based, human; details: 72 h, 0 to 100 μM, FIG. 1
Method: The biological effect in vitro of the compounds A, B and C were then studied on four well characterized primary pancreatic cancer-derived cells 02.063 and LIPC (Basal subtype), Foie8b (derived from a liver metastasis) and HN14 (Classical subtype).
(§1) The cells were screened for chemosensitivity to these compounds for 72 h with increasing concentrations of the compounds ranging from 0 to 100 μM in 96-well plates. Trifluoperazine was used as the reference compound. Each experiment was performed in triplicate and repeated at least three times. Cell viability was estimated after addition of the PrestoBlue cell viability reagent (Life Technologies) for 3 h.

NUPR1 [2] = molecular target: T1, NUPR1 (Homo sapiens, UniProt O60356); assay: Isothermal titration calorimetry of NUPR1-compound interaction; details: ITC, 25° C, sodium phosphate 20 mM pH 7.0, 1% DMSO, single binding site model; read-out: dissociation constant (Kd)
T1 sequence (O60356 1-82): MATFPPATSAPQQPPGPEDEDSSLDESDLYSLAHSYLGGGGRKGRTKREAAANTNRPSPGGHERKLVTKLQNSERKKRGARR
Method: (c) ITC studies: Target engagement for the different compounds was assessed by isothermal titration calorimetry (the gold standard technique in binding affinity determination), which allowed the thermodynamic characterization of the NUPR1-compound interaction.
Titrations were performed in an AutoiTC200 (MicroCal, Malvern Instruments). A solution of NUPR1 (20 μM, in sodium phosphate 20 mM pH 7.0, 1% DMSO) in the calorimetric cell was titrated with a solution of corresponding compound (200 μM, in sodium phosphate 20 mM pH 7.0, 1% DMSO) located in the injecting syringe.
Because compounds were initially dissolved as concentrated (˜10 mM) stock solutions in pure DMSO, a residual percentage of DMSO was present in the final solutions. […] A standard protocol was employed: 19 titrant injections with 2 μL were programmed with a spacing of 150s, a stirring speed of 750 rpm, and a reference power of 10 μcal/s. From the thermogram (thermal power as a function of time), the binding isotherm (ligand-normalized heats as a function of the molar ratio) was obtained through integration of the individual heat effect associated with each ligand injection. Non-linear least squares regression analysis employing a model considering a single binding site in NUPR1 allowed the estimation of the binding parameters: dissociation constant, biding enthalpy, and stoichiometry.

02.063 cells xenograft = assay: Mice xenografted with 02.063 cells, tumor volume; assay type: in vivo, NMRI-Nude mice
Method: FIG. 2: Variation of the size the tumor of mice xenografted with 02.063 cells in the absence of any treatment (control—administration of a volume of vehicle solution equivalent to the volume of treatment administered to the treated mice) or treated with compound C of the invention (daily treatment of 30 days with 5 mg/kg of this compound). Day 0 on this figure corresponds to the day when the tumors reached 200 mm^3 (so around 1 week after the injection of 15×10^6 cells).
02.063 cells were inoculated subcutaneously (15×10^6 cells) in NMRI-Nude 8-week old mice. When tumors reached 200 mm^3, (around 1 week after the injection), a daily treatment was started for 30 days with 5 mg/kg of the compound C and the control group receiving an equivalent volume of vehicle solution (6 mice in control group, 6 mice treated with compound C).

[3] = system: MiaPaCa-2, ANOR, AOIPC, 02-136, 01-046, NH01, LIPC, HN14, 01-008 and Foie8b cells; assay: Chemosensitivity / PrestoBlue cell viability, ten primary pancreatic cancer-derived cells; assay type: cell-based; details: 72 h, 0 to 100 μM, FIG. 4
From the text: The biological effect in vitro of the compounds C, I, F, K, L, M, N, D, G and J were studied on ten well characterized primary pancreatic cancer-derived cells: MiaPaCa-2 (Classical subtype), ANOR (Classical subtype), AOIPC (Basal subtype), 02-136 (Basal subtype), 01-046 (Classical subtype), NH01 (Classical subtype), LIPC (Basal subtype), HN14 (Classical subtype), 01-008 (Basal subtype) and Foie8b (derived from a liver metastasis).
The protocol applies was identical to the one previously indicated, i.e.:
as §1, with “plates.” for “plates. Trifluoperazine was used as the reference compound.”

[4] = Neurological effect on treated mice; assay type: in vivo
Method: Accordingly, Trifluoperazine seemed an interesting compound as anti-cancer agent. However, as indicated in the examples of the present application, increasingly high doses of Trifluoperazine tested in vivo led to neurological effects on immunodeficient mice implanted with human pancreatic cancer cells-derived xenografts.
A similar experiment was performed with Trifluoperazine (data not shown). […] Although relatively efficient as an anticancer agent, the neurological effect found in mice left Trifluoperazine unusable in clinics.

[5] = system: HEPG2 (Hepatocellular carcinoma); assay: PrestoBlue cell viability, HEPG2; assay type: cell-based
Method: as §1
(§2) The effect of compound C was also evaluated by treating cellular lines derived from different tumors with increasing concentrations of this compound. The protocol applied is the same as the one mentioned above for cell lines 02-063, HN14, LIPC and Foie8b.

[6] = system: MDA-MB-231 (Breast cancer); assay: PrestoBlue cell viability, MDA-MB-231; assay type: cell-based; details: Homo sapiens, MDA-MB-231, 72 h
Method: as §1, §2

NUPR1 [7] = molecular target: T1, NUPR1; details: Neira et al., 2017; cited from earlier work
[8] = 5 mg/kg daily for 30 days, from tumors of 200 mm^3, FIG. 2

CCN1CCN(CCCN2c3ccccc3Sc3ccc(C(F)(F)F)cc32)CC1 [Compound A]
cell death induced / efficiency to kill pancreatic cancer cells, compared with Trifluoperazine [1]: close to that induced by Trifluoperazine | Kd (NUPR1 [2]): 11 µM

CCN1CCN(CCCN2c3ccccc3Sc3ccc(C(F)(F)F)cc32)CC1 [Compound B]
Kd (NUPR1 [2]): 7.1 µM

CN(C)CCN1CCN(CCCN2c3ccccc3Sc3ccc(C(F)(F)F)cc32)CC1 [Compound C]
cell death induced / efficiency to kill pancreatic cancer cells, compared with Trifluoperazine [1]: most efficient compound to kill the pancreatic cancer cells | efficiency relative to Trifluoperazine (times more efficient) [1]: around 10 times | size of the tumors (02.063 cells xenograft; [8]): decreased progressively to almost disappear after 20 days of treatment | tumor growth (02.063 cells xenograft; [8]): stopped the growth almost immediately | induction of cell death in the different cancer cell lines [3]: particularly efficient (low IC50) | neurological effect ([4]; treatment of xenografted mice, including chronic treatment with 10 mg/kg): did not show any appreciable neurological effect | IC50 ([5]; HEPG2, 72 h): 0.254 µM | IC50 ([5]; Homo sapiens, HepG2, 72 h): 0.25 µM | Kd (NUPR1 [2]): 2.1 µM | IC50 [6]: 14.1 µM

CN1CCN(CCCN2c3ccccc3Sc3ccc(C(F)(F)F)cc32)CC1 [Trifluoperazine, reference compound]
tumor growth (02.063 cells xenograft; higher dose, data not shown): rapidly, and almost completely, stopped | tumor volume increase compared to the control (02.063 cells xenograft; lowest dose, same period, data not shown): 50% | neurological effect ([4]; increasingly high doses, xenografted immunodeficient mice): neurological effect on treated mice such has lethargy | dissociation constant between NUPR1 and Trifluoperazine (NUPR1 [7]): low micromolar range
